Measured values as given in US11548855B2, “Pyrazole amide compound and application thereof, and fungicide” (Shandong United Pesticide Industry Co. Ltd., priority 2017, dated 2023).

Assays:
cucumber powdery mildew = test: Field trial, cucumber powdery mildew; type: in vivo; details: 100 mg/L, sprayed twice
Procedure: I. Cucumber Powdery Mildew Test Method:
Spray method: Stein and leaf spray (Applicator: Xinkangda lithium battery electric sprayer).
Test crop: cucumber (cultivars: Tianjiao7)
(§1) The test was carried out in Shenyang, the test field was loam with rich organic matters and normal management of fertilizer and water, and no other pesticide was applied during the test.
The arrangement of the test plot was random block permutation; the area of the test plot: 15 m^2; repeat times: 3 times; spray time and frequency: period between Sep. 28, 2018 and Oct. 11, 2018, twice. Spray dosage: each treatment was repeated 3 times, the total water consumption was 8 L. No other pesticide was applied during the test. […] 15-20 days after the second treatment, the incidence of disease spots in each plot was investigated.
The incidence of disease spots in each plot was investigated by randomly selecting 4 samples/plot and 2 plants/samples, all leaves/plant, the incidence of the whole plant was recorded by counting the number of disease leaves and determining the incidence grade.
Grading standard (in units of leaves):
(§2) Grade 0: no leaf-spot area;
(§3) Grade 1: the ratio of leaf-spot area to leaf area is less than 5%;
Grade 3: the ratio of leaf-spot area to leaf area is between 6-10%;
Grade 5: the ratio of leaf-spot area to leaf area is between 11-20%;
Grade 7: the ratio of leaf-spot area to leaf area is between 21-40%;
Grade 9: the ratio of leaf-spot area to leaf area is more than 40%;
(§4) According to the relevant content of the “Guidelines for the field efficacy trials of pesticides of the People's Republic of China (PRC)”, the disease index was calculated according to the grading standard, and the control effect in a unit of % was calculated based on the disease index, and the test data of significance analysis was performed by using DPS evaluation system (DMRT).

wheat powdery mildew [1] = test: Field trial, wheat powdery mildew; type: in vivo, Erysiphe graminis; details: 100 mg/L, sprayed once
Procedure: II. The Wheat Powdery Mildew Test Method:
Spray method: Stein and leaf spraying (Applicator: Xinkangda lithium battery electric sprayer).
Test crops: wheat (cultivars: Liaochun 10)
as §1
The arrangement of the test plot was random block permutation; the area of the test plot: 15 m^2; repeat times: 3 times; spray time and frequency: Sep. 17, 2018, once. Spray dosage: each treatment was repeated 3 times, the total water consumption was 8 L. No other pesticide was applied during the test.
The incidence of disease spots in each plot was investigated by diagonal selecting 4 samples/plot and 20 plants/samples, and the first leaf below the flag leaf of each plant was investigated.
The grading standard of crop disease was as follows:
as §2, §3
Grade 3: the ratio of leaf-spot area to leaf area is between 6-25%;
Grade 5: the ratio of leaf-spot area to leaf area is between 26-50%;
Grade 7: the ratio of leaf-spot area to leaf area is between 51-75%;
Grade 9: the ratio of leaf-spot area to leaf area is between 76-100%;
as §4

wheat powdery mildew [2] = details: cited from earlier work
wheat powdery mildew [3] = details: cited from earlier work; remark: listed apart in the source

Structure (SMILES)	Control effect (%) Cucumber powdery mildew (cucumber powdery mildew)	Control effect (%) Wheat powdery mildew (wheat powdery mildew [1])	activity against wheat powdery mildew in greenhouse pot test (wheat powdery mildew [2])	control effect in field test (wheat powdery mildew [3])
CON(C(=O)c1cn(C)nc1C(F)F)C(C)Cc1c(Cl)cc(Cl)cc1Cl (stereo not shown) [Pydiflumetofen]	86.0%	91.0%	–	–
CNC(=O)/C(=N/OC)c1ccccc1CO/N=C(C)/C=C/c1c(Cl)cccc1Cl [fenaminstrobin]	–	–	extremely high activity	worse
